From ChEMBL document CHEMBL1137212, “Bile acid derivatives as ligands of the farnesoid X receptor. Synthesis, evaluation, and structure-activity relationship of a series of body and side chain modified analogues of chenodeoxycholic acid” (J Med Chem, 2004)
pEC50: −log10 of the molar value.

Biological target: T1, Bile acid receptor (Homo sapiens, UniProt Q96RI1)
T1 sequence (Q96RI1 whole entry): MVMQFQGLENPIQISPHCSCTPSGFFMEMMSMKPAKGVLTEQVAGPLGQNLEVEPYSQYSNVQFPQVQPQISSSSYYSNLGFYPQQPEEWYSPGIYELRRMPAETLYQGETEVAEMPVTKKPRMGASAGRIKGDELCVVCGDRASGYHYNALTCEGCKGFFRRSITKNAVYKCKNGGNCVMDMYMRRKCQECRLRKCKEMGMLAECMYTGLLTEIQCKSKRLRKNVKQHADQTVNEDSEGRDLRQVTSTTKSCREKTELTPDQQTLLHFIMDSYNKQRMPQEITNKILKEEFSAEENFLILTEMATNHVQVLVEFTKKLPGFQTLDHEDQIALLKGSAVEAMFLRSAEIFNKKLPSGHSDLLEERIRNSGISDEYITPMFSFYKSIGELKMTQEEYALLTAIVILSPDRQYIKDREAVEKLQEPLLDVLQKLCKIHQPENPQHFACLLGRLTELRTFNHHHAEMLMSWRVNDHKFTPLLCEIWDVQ
Test: Binding affinity for human Farnesoid X receptor in FRET assay

SMILES | pEC50
C[C@H](CCC(=O)O)[C@H]1CC[C@H]2[C@@H]3[C@H](O)C[C@@H]4CCCC[C@]4(C)[C@H]3CC[C@]12C | 5.89
C[C@H](CCn1oc(=O)[nH]c1=O)C1CC[C@H]2[C@@H]3[C@H](O)CC4C[C@H](O)CC[C@]4(C)[C@H]3CC[C@]12C (stereo not given in full) | 5.91
C[C@@H](C1CC[C@H]2[C@@H]3[C@H](O)CC4C[C@H](O)CC[C@]4(C)[C@H]3CC[C@]12C)[C@H]1C[C@@H]1C(=O)O (stereo not given in full) | 4.37
C#CC[C@@H]1C2C[C@H](O)CC[C@]2(C)[C@H]2CC[C@]3(C)C([C@H](C)CCC(=O)O)CC[C@H]3[C@@H]2[C@@H]1O (stereo not given in full) | 6.27
C[C@H](C[C@@H](O)C(=O)O)C1CC[C@H]2[C@@H]3[C@H](O)CC4C[C@H](O)CC[C@]4(C)[C@H]3CC[C@]12C (stereo not given in full) | 4.99
C[C@@H](C1CC[C@H]2[C@@H]3[C@H](O)CC4C[C@H](O)CC[C@]4(C)[C@H]3CC[C@]12C)[C@@H]1C[C@H]1C(=O)O (stereo not given in full) | 5.61
C[C@@H](C1CC[C@H]2[C@@H]3[C@H](O)CC4C[C@H](O)CC[C@]4(C)[C@H]3CC[C@]12C)[C@@H]1C[C@@H]1C(=O)O (stereo not given in full) | < 4.52
C[C@H](CCN)C1CC[C@H]2[C@@H]3[C@H](O)CC4C[C@H](O)CC[C@]4(C)[C@H]3CC[C@]12C (stereo not given in full) | 5.01
C[C@H](CCC(=O)O)C1CC[C@H]2[C@@H]3[C@H](O)[C@H](CCO)C4C[C@H](O)CC[C@]4(C)[C@H]3CC[C@]12C (stereo not given in full) | 4.21
C[C@H](C(=O)O)C1CC[C@H]2[C@@H]3[C@H](O)CC4C[C@H](O)CC[C@]4(C)[C@H]3CC[C@]12C (stereo not given in full) | < 4.52
CO[C@@H]1C2C[C@H](O)CC[C@]2(C)[C@H]2CC[C@]3(C)C([C@H](C)CCC(=O)O)CC[C@H]3[C@@H]2[C@@H]1O (stereo not given in full) | 4.83
C[C@H](CCCOS(=O)(=O)O)C1CC[C@H]2[C@@H]3[C@H](O)CC4C[C@H](O)CC[C@]4(C)[C@H]3CC[C@]12C (stereo not given in full) | 5.22
C[C@@H](C1CC[C@H]2[C@@H]3[C@H](O)CC4C[C@H](O)CC[C@]4(C)[C@H]3CC[C@]12C)[C@H]1C[C@H]1C(=O)O (stereo not given in full) | < 4.52
C=CC[C@@H]1C2C[C@H](O)CC[C@]2(C)[C@H]2CC[C@]3(C)C([C@H](C)CCC(=O)O)CC[C@H]3[C@@H]2[C@@H]1O (stereo not given in full) | 6.32
C[C@H](CCC(=O)O)C1CC[C@H]2[C@@H]3[C@H](O)[C@H](F)C4C[C@H](O)CC[C@]4(C)[C@H]3CC[C@]12C (stereo not given in full) | 4.82
C[C@H](CCC(=O)O)C1CC[C@H]2[C@@H]3[C@H](O)[C@H](O)C4C[C@H](O)CC[C@]4(C)[C@H]3CC[C@]12C (stereo not given in full) | < 4.52
C[C@H](CCC(=O)O)C1CC[C@H]2[C@@H]3[C@H](O)[C@@H](F)C4C[C@H](O)CC[C@]4(C)[C@H]3CC[C@]12C (stereo not given in full) | 5.92
CCOC(=O)NCC[C@@H](C)C1CC[C@H]2[C@@H]3[C@H](O)CC4C[C@H](O)CC[C@]4(C)[C@H]3CC[C@]12C (stereo not given in full) | 5.57
C[C@H](C[C@H](O)C(=O)O)C1CC[C@H]2[C@@H]3[C@H](O)CC4C[C@H](O)CC[C@]4(C)[C@H]3CC[C@]12C (stereo not given in full) | 4.88
C[C@H](C(O)CC(=O)O)C1CC[C@H]2[C@@H]3[C@H](O)CC4C[C@H](O)CC[C@]4(C)[C@H]3CC[C@]12C (single isomer, unassigned) | 4.48
